Where “and” joins values, the source holds several entries; their conditions need not be identical. Equal entries are not always repeated. Where two headings read alike, the source gives them in different places.
Key:
[1] = system: Coxsackievirus B3-H3; assay: microbe, parasite or virus in culture; format: cell-based
[2] = system: Poliovirus 1; assay: microbe, parasite or virus in culture; format: cell-based; conditions: read-out: EC50 PV1
[3] = system: Poliovirus 3; assay: microbe, parasite or virus in culture; format: cell-based; conditions: read-out: EC50 PV3
[4] = system: Coxsackievirus B1; assay: microbe, parasite or virus in culture; format: cell-based
[5] = system: Coxsackievirus B2; assay: microbe, parasite or virus in culture; format: cell-based
[6] = system: Coxsackievirus B4; assay: microbe, parasite or virus in culture; format: cell-based
[7] = system: Coxsackievirus B5; assay: microbe, parasite or virus in culture; format: cell-based
[8] = system: Enterovirus 71; assay: microbe, parasite or virus in culture; format: cell-based
[9] = system: Coxsackievirus A9; assay: microbe, parasite or virus in culture; format: cell-based
[10] = system: Echovirus 6; assay: microbe, parasite or virus in culture; format: cell-based; conditions: read-out: EC50 ECHO06
[11] = system: Echovirus 7; assay: microbe, parasite or virus in culture; format: cell-based; conditions: read-out: EC50 ECHO07
[12] = system: Echovirus 9; assay: microbe, parasite or virus in culture; format: cell-based; conditions: read-out: EC50 ECHO09
[13] = system: Echovirus 25; assay: microbe, parasite or virus in culture; format: cell-based; conditions: read-out: EC50 ECHO25
[14] = system: Echovirus 30; assay: microbe, parasite or virus in culture; format: cell-based; conditions: read-out: EC50 ECHO30
[15] = system: Enterovirus D68/Fermon; assay: Antiviral assay, Enterovirus D68 strain Fermon in RD cells; format: cell-based
[16] = system: Enterovirus D68/US/Mo/14-18949; assay: Antiviral assay, Enterovirus D68 strain US/Mo/14-18949 in RD cells; format: cell-based
[17] = system: Enterovirus D68/US/KY/14-18953; assay: Antiviral assay, Enterovirus D68 strain US/KY/14-18953 in RD cells; format: cell-based
[18] = system: Measles; assay: microbe, parasite or virus in culture; format: cell-based; conditions: read-out: EC50 Measles
[19] = system: SARS Coronavirus; format: cell-based
[20] = system: Influenza A H1N1; assay: microbe, parasite or virus in culture; format: cell-based; conditions: read-out: EC50 Influenza A H1N1
[21] = system: RSV (resp syncitial virus); assay: microbe, parasite or virus in culture; format: cell-based; conditions: read-out: EC50 RSV
[22] = system: Japanese Encephalitis; format: cell-based
[23] = system: Powassan; format: cell-based, Powassan virus
[24] = system: Yellow Fever Virus; assay: microbe, parasite or virus in culture; format: cell-based; conditions: read-out: EC50 Yellow Fever Virus
[25] = system: Punta Toro virus; assay: microbe, parasite or virus in culture; format: cell-based; conditions: read-out: EC50 Punta Toro virus
[26] = system: Rift Valley virus; assay: organism not typed; format: cell-based; conditions: read-out: EC50 Rift Valley virus
[27] = system: Venezuelan Encephalitis; format: cell-based, Venezuelan encephalitis virus
[28] = system: Chikungunya; format: cell-based, chikungunya virus
[29] = system: Rabies; format: cell-based, rabies virus
[30] = system: HeLa-RW cells
[31] = system: LLC cells
[32] = system: RD cells
[33] = system: Vero 76
[34] = system: MDCK
[35] = system: MA-104
[36] = system: BHK; conditions: read-out: CC50 (Powassan test)
[37] = system: Vero; conditions: read-out: CC50 (Yellow Fever Virus test)
[38] = system: BHK-21; conditions: read-out: CC50 (Rabies test)
[39] = system: Echovirus 11; assay: microbe, parasite or virus in culture; format: cell-based; conditions: Enterovirus B, read-out: EC50 ECHO11
[40] = in vitro; conditions: human
[41] = in vitro
[42] = read-out: CC50 (Rift Valley virus test), with Rift Valley virus MP-12 test
[43] = read-out: CC50 (SARS Coronavirus test), with SARS Coronavirus Urbani test
[44] = Coxsackievirus, B3 / CVB3, read-out: EC50 CVB3-H3
[45] = Enterovirus B, B1 / CVB1, read-out: EC50 CVB1
[46] = Enterovirus B, B2 / CVB2, read-out: EC50 CVB2
[47] = Enterovirus B, B4 / CVB4, read-out: EC50 CVB4
[48] = Enterovirus B, B5 / CVB5, read-out: EC50 CVB5
[49] = Enterovirus A, EV71, read-out: EC50 EV71
[50] = Enterovirus B, A9, read-out: EC50 COX A9

## CC(C)n1ncc2c(C(=O)Nc3cccc(S(N)(=O)=O)c3)cc(-c3cccs3)nc21 [JX-025]
[1]; read-out: EC50 CVB3-H3
  EC50: 0.3 µM
[2]
  EC50: 5 µM
[3]
  EC50: 5 µM
[4]; read-out: EC50 CVB1
  EC50: 1.2 µM
[5]; read-out: EC50 CVB2
  EC50: 1.2 µM
[6]; read-out: EC50 CVB4
  EC50: 1.1 ± 0.2 µM
[7]; read-out: EC50 CVB5
  EC50: 1.2 µM
[8]; read-out: EC50 EV71
  EC50: 1.3 ± 0.1 µM
[9]; read-out: EC50 COX A9
  EC50: 2.1 ± 0.7 µM
[10]
  EC50: 1.1 ± 0.3 µM
[11]
  EC50: 2.1 ± 0.6 µM
[12]
  EC50: 1.2 µM
[13]
  EC50: 1.1 µM
[14]
  EC50: 0.6 µM
[15]
  EC50: 0.1 µM and 0.15 µM
[16]
  EC50: 0.06 ± 0.02 µM
[17]
  EC50: 0.15 µM
[18]
  EC50: 7.1 µM
[19]
  EC50: > 7.2 µM
[20]
  EC50: > 100 µM
[21]
  EC50: > 100 µM
[22]
  EC50: 0.31 µM
[23]
  EC50: > 8.9 µM
[24]
  EC50: > 4.8 µM
[25]
  EC50: 38 µM
[26]
  EC50: > 100 µM
[27]
  EC50: > 0.88 µM
[28]
  EC50: 0.3 µM
[29]
  EC50: > 12.2 µM
[30]
  CC50: 50 µM
[31]
  CC50: 25 µM
[32]
  CC50: 50 µM
[33]; [42]
  CC50: > 100 µM
[33]; [43]
  CC50: 7.2 µM
[34]
  CC50: > 100 µM
[35]
  CC50: > 100 µM
[36]
  CC50: 8.9 µM
[37]
  CC50: 4.8 µM
[38]
  CC50: 12.2 µM

## CC(C)n1ncc2c(C(=O)Nc3ccc(F)cc3)cc(-c3ccsc3)nc21 [JX-030]
[1]; read-out: EC50 CVB3-H3
  EC50: 1.3 ± 0.1 µM
[2]
  EC50: > 25 µM
[3]
  EC50: > 25 µM
[4]; read-out: EC50 CVB1
  EC50: 1.6 ± 0.1 µM
[5]; read-out: EC50 CVB2
  EC50: 1.6 ± 0.1 µM
[6]; read-out: EC50 CVB4
  EC50: 2.2 ± 0.1 µM
[7]; read-out: EC50 CVB5
  EC50: 1.2 ± 0.1 µM
[8]; read-out: EC50 EV71
  EC50: 1.4 ± 0.2 µM
[9]; read-out: EC50 COX A9
  EC50: 1.7 ± 0.1 µM
[10]
  EC50: 1.2 ± 0.1 µM
[11]
  EC50: 2.6 ± 0.1 µM
[12]
  EC50: 1.9 µM
[13]
  EC50: 0.9 µM
[14]
  EC50: 0.6 µM
[16]
  EC50: 0.3 µM
[17]
  EC50: 0.6 µM
[18]
  EC50: 20.5 µM
[19]
  EC50: 4.4 µM
[20]
  EC50: 10.7 µM
[21]
  EC50: 7 µM
[22]
  EC50: 3.4 µM
[23]
  EC50: > 85.8 µM
[24]
  EC50: > 11.1 µM
[25]
  EC50: > 78 µM
[26]
  EC50: 140 µM
[27]
  EC50: > 9.4 µM
[28]
  EC50: > 1.3 µM
[29]
  EC50: 88.4 µM
[30]
  CC50: 25 µM
[31]
  CC50: > 100 µM
[32]
  CC50: 25 µM
[33]; [42]
  CC50: 169 µM
[33]; [43]
  CC50: 18.7 µM
[34]
  CC50: 17.7 µM
[35]
  CC50: 67.6 µM
[36]
  CC50: > 85.8 µM
[37]
  CC50: 11.1 µM
[38]
  CC50: > 260 µM

## CC(C)n1ncc2c(N(C(=O)c3ccc(F)cc3)C(=O)c3ccc(F)cc3)cc(-c3cccs3)nc21 [JX-039]
[1]; [44]
  EC50: 4.7 µM
[2]; Enterovirus C
  EC50: > 10 µM
[3]; Enterovirus C
  EC50: > 10 µM
[4]; [45]
  EC50: 4.7 µM
[5]; [46]
  EC50: 4.7 µM
[6]; [47]
  EC50: > 10 µM
[7]; [48]
  EC50: > 10 µM
[8]; [49]
  EC50: 3.2 ± 0.1 µM
[9]; [50]
  EC50: 4.5 µM
[10]; Enterovirus B
  EC50: 2.4 µM
[11]; Enterovirus B
  EC50: > 10 µM
[12]; Enterovirus B
  EC50: > 10 µM
[39]
  EC50: > 10 µM
[13]; Enterovirus B
  EC50: > 10 µM
[14]; Enterovirus B
  EC50: > 10 µM
[40]
  CC50: 10 µM

## CC(C)n1ncc2c(NC(=O)c3ccc(F)cc3)cc(-c3cccs3)nc21 [JX-054]
[1]; [44]
  EC50: 4.7 µM
[2]; Enterovirus C
  EC50: > 10 µM
[3]; Enterovirus C
  EC50: > 10 µM
[4]; [45]
  EC50: 4.7 µM
[5]; [46]
  EC50: 4.7 µM
[6]; [47]
  EC50: 4.7 µM
[7]; [48]
  EC50: 4.7 µM
[8]; [49]
  EC50: 4 µM
[9]; [50]
  EC50: 4.7 µM
[11]; Enterovirus B
  EC50: 4.7 µM
[12]; Enterovirus B
  EC50: 2.4 µM
[39]
  EC50: 3.1 µM
[14]; Enterovirus B
  EC50: 4.7 µM
[15]; Enterovirus D
  EC50: 2.4 µM
[16]; Enterovirus D
  EC50: 2.53 ± 0.23 µM
[17]; Enterovirus D
  EC50: 3.4 ± 1.18 µM
[41]
  CC50: 50 µM

From patent US11787799B2 (priority 2015, dated 2023)
